Assay results reported in ChEMBL document CHEMBL2417377, “Hit-to-lead optimization and kinase selectivity of imidazo[1,2-a]quinoxalin-4-amine derived JNK1 inhibitors” (Bioorg Med Chem Lett, 2013).

How the values were obtained:
[1] = target: T1, Mitogen-activated protein kinase 8 (Homo sapiens, UniProt P45983); experiment: Inhibition of human recombinant histidine-tagged full-length JNK1 expressed in insect cells activated by GST-tagged MAP2K7 using ATF2 as substrate after 1 hr by luminescence plate reader analysis
[2] = target: Mitogen-activated protein kinase 9 (Homo sapiens, UniProt P45984); experiment: Inhibition of JNK2 in human Jurkat cell lysates using desthiobiotin-tagged ATP probe AX9989 followed by trypsinization by LC/MS analysis
[3] = target: T1, Mitogen-activated protein kinase 8; experiment: Inhibition of JNK1 in human Jurkat cell lysates using desthiobiotin-tagged ATP probe AX9989 followed by trypsinization by LC/MS analysis

T1 sequence (P45983 whole entry): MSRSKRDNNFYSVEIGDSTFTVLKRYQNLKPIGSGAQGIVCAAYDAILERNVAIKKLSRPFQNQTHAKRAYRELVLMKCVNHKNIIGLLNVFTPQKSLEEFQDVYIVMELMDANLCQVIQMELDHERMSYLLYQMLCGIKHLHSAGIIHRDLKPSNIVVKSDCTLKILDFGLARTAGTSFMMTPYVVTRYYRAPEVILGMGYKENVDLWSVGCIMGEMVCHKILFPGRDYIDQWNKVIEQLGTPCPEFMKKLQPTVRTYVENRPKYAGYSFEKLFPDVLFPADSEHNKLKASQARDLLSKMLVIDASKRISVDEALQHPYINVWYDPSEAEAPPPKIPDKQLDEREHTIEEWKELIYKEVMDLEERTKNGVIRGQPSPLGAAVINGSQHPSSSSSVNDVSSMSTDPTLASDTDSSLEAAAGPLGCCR
Chain of Mitogen-activated protein kinase 9 (P45984 whole entry): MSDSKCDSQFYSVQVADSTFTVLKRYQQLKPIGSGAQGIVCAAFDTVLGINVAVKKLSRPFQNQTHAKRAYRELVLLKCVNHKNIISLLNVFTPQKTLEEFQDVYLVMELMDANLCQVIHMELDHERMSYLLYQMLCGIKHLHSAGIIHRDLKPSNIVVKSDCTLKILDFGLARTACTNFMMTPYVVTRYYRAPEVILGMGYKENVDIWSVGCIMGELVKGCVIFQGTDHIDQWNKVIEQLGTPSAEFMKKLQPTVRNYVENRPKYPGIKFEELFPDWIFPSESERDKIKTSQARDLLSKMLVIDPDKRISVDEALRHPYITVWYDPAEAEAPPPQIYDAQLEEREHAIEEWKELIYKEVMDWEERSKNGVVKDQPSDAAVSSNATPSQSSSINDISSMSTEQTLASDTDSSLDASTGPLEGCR

| IC50 [1] | IC50 [2] | IC50 [3] | Structure (SMILES) |
| --- | --- | --- | --- |
| 160 nM | > 190 nM | 59 nM | CCC(CC)(NC(=O)c1ccc2nc(N[C@H]3CC[C@H](O)CC3)c3nccn3c2c1)c1ccccc1 |
| 190 nM | > 190 nM | 140 nM | O=C(NC1(c2ccc(Cl)cc2)CC1)c1ccc2nc(N[C@H]3CC[C@H](O)CC3)c3nccn3c2c1 |
| 180 nM |  |  | O=C(NC1(c2ccccc2)CCCC1)c1ccc2nc(N[C@H]3CC[C@H](O)CC3)c3nccn3c2c1 |
| 430 nM |  |  | O=C(NC1(c2ccccc2)CCCCCC1)c1ccc2nc(N[C@H]3CC[C@H](O)CC3)c3nccn3c2c1 |
| 8000 nM |  |  | FC1(F)CCC(Nc2nc3ccccc3n3ccnc23)CC1 |
| 680 nM |  |  | O=C(NCc1ccccc1)c1ccc2nc(N[C@H]3CC[C@H](O)CC3)c3nccn3c2c1 |
| 2400 nM |  |  | CS(=O)(=O)N[C@H]1CC[C@H](Nc2nc3ccccc3n3ccnc23)CC1 |
| 4170 nM |  |  | NC(=O)c1ccc2c(c1)nc(N[C@H]1CC[C@H](O)CC1)c1nccn12 |
| 690 nM |  |  | COC[C@@H](NC(=O)c1ccc2nc(N[C@H]3CC[C@H](O)CC3)c3nccn3c2c1)c1ccccc1 |
| 1500 nM |  | 82 nM | O=C(O)c1ccc2c(c1)nc(N[C@H]1CC[C@H](O)CC1)c1nccn12 |
| 360 nM |  |  | O=C(NC(c1ccccc1)c1ccccc1)c1ccc2nc(N[C@H]3CC[C@H](O)CC3)c3nccn3c2c1 |
| 73000 nM |  |  | O[C@H]1CC[C@H](NC2=Nc3ccccc3N3CCN=C23)CC1 |
| 620 nM |  |  | O=C(N[C@H](CCO)c1ccccc1)c1ccc2nc(N[C@H]3CC[C@H](O)CC3)c3nccn3c2c1 |
| 4900 nM |  |  | O=C(N[C@@H](CO)c1ccccc1)c1ccc2nc(N[C@H]3CC[C@H](O)CC3)c3nccn3c2c1 |
| 1700 nM |  |  | CC[C@H](NC(=O)c1ccc2nc(N[C@H]3CC[C@H](O)CC3)c3nccn3c2c1)c1ccccc1 |
| 1500 nM |  |  | C[C@@H](NC(=O)c1ccc2c(c1)nc(N[C@H]1CC[C@H](O)CC1)c1nccn12)c1ccccc1 |
| 1220 nM |  |  | O=C(NC1(c2ccccc2)CCCCC1)c1ccc2nc(N[C@H]3CC[C@H](O)CC3)c3nccn3c2c1 |
| 350 nM |  |  | CC(C)[C@@H](NC(=O)c1ccc2nc(N[C@H]3CC[C@H](O)CC3)c3nccn3c2c1)c1ccccc1 |
| > 100000 nM |  |  | O[C@H]1CC[C@H](Nc2nc3ccccc3n3cccc23)CC1 |
| 1700 nM |  |  | N[C@H]1CC[C@H](Nc2nc3ccccc3n3ccnc23)CC1 |
| 250 nM |  |  | Cc1ccc(C2(NC(=O)c3ccc4nc(N[C@H]5CC[C@H](O)CC5)c5nccn5c4c3)CC2)cc1 |
| 490 nM |  |  | O=C(NCc1ccccc1)c1ccc2c(c1)nc(N[C@H]1CC[C@H](O)CC1)c1nccn12 |
